A short description of series [1]: Oral maximum tolerated dose. The settings on record: in vivo, 300 mg/kg.
The test system of a further series is P. berghei ANKA strain. Kind of series: In vivo antimalarial efficacy in the P. berghei mouse model (Peter's test). Also noted: species or system Plasmodium berghei in female NMRI mice. The settings on record: 4 × 30 mg/kg oral, once daily; mice cured / mice in group; 30 mg/kg. The protocol: Compound 41 was dosed as a bolus solution intravenously at 1 mg free base/kg (dose volume: 5 mL/kg; dose vehicle: 5% DMSO;saline) or by gavage orally as solution at 3 mg free base/kg (dose volume: 10 mL/kg; Dose vehicle: 0.5% w/v hydroxypropylmethylcellulose with 0.4% v/v Tween 80 and 0.5% v/v benzyl alcohol) to male Sprague Dawley rats (n=3/dose route). Blood samples were taken from each rat at 5, 15, 30 min, 1, 2, 4, 6, 8, 24 and 30 h post-dose, mixed with two volumes of distilled water and stored frozen until UPLC/MS/MS analysis.
Pharmacokinetic parameters were derived from the blood concentration time curve for each compound using PKsolutions software v 2.0 (Summit Research Services, USA).
In vivo antimalarial efficacy studies in P. berghei. (Swiss TPH)
In vivo efficacy was conducted as previously described10 with the modification that female NMRI mice (n = 3) were infected with a GFP-transfected P. berghei ANKA strain (donated by A. P. Waters and C. J. Janse, Leiden University, The Netherlands), and parasitaemia determined (96 h after infection) using standard flow cytometry techniques. Compounds 1, 25, 27, 30 and 49 were prepared in 10% DM SO, 40% PEG 400 and 50% water prior to administration orally, once daily for 4 days.
Compounds 40, 41, 43 and 44 were prepared in a non-solubilizing, standard suspension vehicle called HPMC (0.5% [wt/vol] hydroxypropylmethylcellulose, 0.5% [vol/vol] benzyl alcohol, 0.4% [vol/vol] Tween 80, and 0.9% [wt/vol] sodium chloride in water) prior to administration orally, once daily for 4 days. Blood samples were collected on day 4 (96 h after infection) in two volumes water. Animals […]
and then hourly up to 4 h after dosing each day. The animals were selected randomly for each group

The next series in a line: Rat pharmacokinetics. The class given is in vivo, male Sprague Dawley rats. The settings on record: male Sprague Dawley rat, intravenous at 1 mg/kg. Here is the method: (100 µl) was then removed from both acceptor and donor compartments and mixed with acetonitrile (80 µl) containing an internal standard. The samples were centrifuged (10 min, 5 °C, 3270 g) to sediment precipitated protein and sealed prior to UPLC-MS/MS analysis using a Quattro Premier XE (Waters Corp, USA). Pe was calculated as shown in the below equation:
Pe (nm/sec) = 107 x - In [1 - CA (t) / Cequi]
CA(t) = peak area of compound present in acceptor well at time t = 18000 sec Cequi = [CD(t) * VD + CA(t) * VA] / (VD + VA)
VA = acceptor well volume
CD(t) = peak area of compound present in donor well at time t = 18000 sec Recovery of compound from donor and acceptor wells was calculated and data was only accepted when recovery exceeded 70 %. […]
Compound was dosed as a bolus solution intravenously (12) at 3mg free base/kg (dose volume: 5 mL/kg; dose vehicle: 10% DMSO, 90% saline) to female NMRI mice (n=3) or dosed orally (12 and 13) by gavage as a solution at 10 mg free base/kg (dose volume: 10mL/kg; Dose vehicle: 5 or 10% DMSO; 40% PEG400; 50 or 55% distilled water) to female NMRI mice (n=3/dose level). […] The level of each compound in mouse blood was determined by UPLC-MS/MS as previously reported.9 Pharmacokinetic parameters were derived from the blood concentration time curve using PKsolutions software v 2.0 (Summit Research Services, USA). […]

Molecules are shown by their SMILES. Values joined by “and” are separate entries in the source; they are usually repeats but may differ in a detail not shown here. Equal values may be shown once.

`O=C(NCCN1CCCC1)c1cc(NCCCN2CCOCC2)nc2ccc(F)cc12` [Compound 25, 6-Fluoro-2-((3-morpholinopropyl)amino)-N-(2-(pyrrolidin-1-yl)ethyl)quinoline-4-carboxamide]: the maximal tolerated dose (MTD) at 4 days in series [1] is above 300 mg/kg.

For `O=C(NCCN1CCCC1)c1cc(NCCCCN2CCOCC2)nc2ccc(Cl)cc12` [Compound 27, 6-Chloro-2-((4-morpholinobutyl)amino)-N-(2-(pyrrolidin-1-yl)ethyl)quinoline-4-carboxamide], the cure result with P. berghei ANKA strain is “one out of three and 1/3”. `O=C(NCCN1CCCC1)c1cc(-c2ccc(CN3CCOCC3)cc2F)nc2ccc(F)cc12` [Compound 41] displayed a Clb in the series “Rat pharmacokinetics” of 32 mL min^–1 kg^–1.

The values are drawn from publication PMC5108032, “Discovery of a Quinoline-4-carboxamide Derivative with a Novel Mechanism of Action, Multistage Antimalarial Activity, and Potent in Vivo Efficacy” (Journal of Medicinal Chemistry, 2016).
